Paper PMC12287357, “Bacterial effectors mediate kinase reprogramming through mimicry of conserved eukaryotic motifs” (EMBO Reports, 2025)
Square brackets hold non-standard residues; d marks the D form. Peptide text beside a SMILES is read from it. pY = N[C@@H](Cc1ccc(OP(=O)(O)O)cc1)C(=O)O; pS = N[C@@H](COP(=O)(O)O)C(=O)O

Target: T1, His6STAT3^127-715 (Homo sapiens, UniProt P40763)
T1 construct: made in house; host or cells: E. coli BL21 (DE3)
Experiment: Biolayer interferometry (BLI): SteE^138-148 phosphopeptides binding to recombinant STAT3
Conditions: Octet R8, 25 °C, biotinylated peptide immobilised on streptavidin sensors, pH 7.7, 0.005% Tween-20, steady-state one-site fit, read-out: Kd (affinity of SteE^138-148 phosphorylated peptide for STAT3)
Method: Recombinant Salmonella Typhimurium His6-SteE^ΔN20 and human His6-STAT3^127-715 were ligated into pET49 vector using Gibson Assembly; the N-terminal His6-tag is cleavable with HRV 3 C protease.
Binding affinities of His6-STAT3^127-715 to SteE peptides were derived from […] measured on an Octet R8 system (Sartorius) at 25 °C. Biotinylated SteE peptides were synthesised by the Chemical Biology Science Technology Platform at the Francis Crick Institute and dissolved from lyophilised stock in the respective protein buffer to which 0.005% Tween-20 was added (BLI buffer). Appropriate serial dilutions of His6-STAT3^127-715 were prepared in 25 mM HEPES, 200 mM NaCl, 10 mM MgCl2, 0.5 mM TCEP at pH 7.7. SteE peptides were immobilised on Streptavidin (SA) sensors at 0.2 µg/mL by incubation until the linear signal increase started to plateau (up to 160 s), followed by a sensor wash in BLI buffer for 50 s to stabilise the baseline. Association was recorded by incubating the sensors with His6-STAT3^127-715 for 300 s. Subsequent dissociation in BLI buffer was followed for up to 300 s. Data were acquired using Octet BLI Discovery software 12.2.2.20 and processed with Octet BLI Analysis software 12.2.2.4 by subtraction of reference wells without protein and y alignment of the data to the baseline. […]

T1 sequence (P40763 127-715): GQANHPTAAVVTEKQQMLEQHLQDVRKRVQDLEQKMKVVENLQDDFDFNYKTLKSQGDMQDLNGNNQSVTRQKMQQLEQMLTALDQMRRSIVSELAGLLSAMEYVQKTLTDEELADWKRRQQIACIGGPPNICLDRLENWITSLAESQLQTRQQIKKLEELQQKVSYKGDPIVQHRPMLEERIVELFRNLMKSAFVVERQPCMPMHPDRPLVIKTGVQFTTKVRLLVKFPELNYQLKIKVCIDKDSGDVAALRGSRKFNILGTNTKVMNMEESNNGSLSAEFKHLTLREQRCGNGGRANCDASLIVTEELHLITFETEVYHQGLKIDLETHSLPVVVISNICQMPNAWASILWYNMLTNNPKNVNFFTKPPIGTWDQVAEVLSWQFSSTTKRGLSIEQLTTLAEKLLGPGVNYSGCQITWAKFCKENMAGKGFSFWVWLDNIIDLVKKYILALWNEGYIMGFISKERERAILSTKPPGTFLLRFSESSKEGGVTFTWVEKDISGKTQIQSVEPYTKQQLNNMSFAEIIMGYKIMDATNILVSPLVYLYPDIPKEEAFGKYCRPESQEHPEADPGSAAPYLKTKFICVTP

Work on `CC[C@H](C)[C@H](NC(=O)[C@H](Cc1ccc(OP(=O)(O)O)cc1)NC(=O)CNC(=O)[C@H](COP(=O)(O)O)NC(=O)[C@@H]1CCCN1C(=O)[C@@H]1CCCN1C(=O)[C@@H](N)CC(N)=O)C(=O)N[C@@H](C)C(=O)N[C@@H](CCC(N)=O)C(=O)N[C@@H](Cc1ccc(O)cc1)C(=O)N[C@@H](CCCNC(=N)N)C(=O)O` [SteE_pS141pY143] (H-NPP[pS]G[pY]IAQYR-OH) yielded a Kd of 1.4 ± 0.08 µM.
